According to PubChem BioAssay (NCI):
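Interpolation was linear, between the two tested concentrations surrounding the appropriate level; five concentrations were tested over 48 hours in 96-well plates. TGI: total growth inhibition.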

Assays:
Experiment in all cases: DTP human tumour cell line panel, 48 h
[1] = tested on: 786-0 renal
[2] = tested on: A498 renal
[3] = tested on: A549 NSCLC
[4] = tested on: ACHN renal
[5] = tested on: CAKI-1 renal
[6] = tested on: COLO 205 colon
[7] = tested on: DLD-1 colon
[8] = tested on: DMS 114 small cell lung
[9] = tested on: DMS 273 small cell lung
[10] = tested on: EKVX NSCLC
[11] = tested on: HCC-2998 colon
[12] = tested on: HCT-116 colon
[13] = tested on: HCT-15 colon
[14] = tested on: HL-60(TB) leukemia
[15] = tested on: HOP-18 NSCLC
[16] = tested on: HOP-62 NSCLC
[17] = tested on: HT29 colon
[18] = tested on: IGROV1 ovarian
[19] = tested on: K-562 leukemia
[20] = tested on: KM12 colon
[21] = tested on: KM20L2 colon
[22] = tested on: LOX IMVI melanoma
[23] = tested on: LXFL 529 NSCLC
[24] = tested on: M14 melanoma
[25] = tested on: M19-MEL melanoma
[26] = tested on: MOLT-4 leukemia
[27] = tested on: NCI-H226 lung
[28] = tested on: NCI-H23 lung
[29] = tested on: NCI-H460 lung
[30] = tested on: NCI-H522 lung
[31] = tested on: OVCAR-3 ovarian
[32] = tested on: OVCAR-4 ovarian
[33] = tested on: OVCAR-5 ovarian
[34] = tested on: RPMI-8226 leukemia
[35] = tested on: SF-268 CNS
[36] = tested on: SF-539 CNS
[37] = tested on: SK-MEL-2 melanoma
[38] = tested on: SK-MEL-28 melanoma
[39] = tested on: SK-MEL-5 melanoma
[40] = tested on: SK-OV-3 ovarian
[41] = tested on: SN12C renal
[42] = tested on: SNB-19 CNS
[43] = tested on: SNB-75 CNS
[44] = tested on: SNB-78 CNS
[45] = tested on: SR leukemia
[46] = tested on: SW-620 colon
[47] = tested on: TK-10 renal
[48] = tested on: U251 CNS
[49] = tested on: UACC-62 melanoma
[50] = tested on: UO-31 renal

Measured: TGI

COC(=O)c1c/c(=N\NC(=O)CC(=O)Nc2ccccc2OC)c2ccccc2o1
> 100 µM: all assays above
